Source: paper PMC8230565, “Bisavenathramide Analogues as Nrf2 Inductors and Neuroprotectors in In Vitro Models of Oxidative Stress and Hyperphosphorylation” (Antioxidants, 2021)
“Also recorded” adds a separate entry of the source.

Legend:
Format in all cases: cell-based
[1] = tested on: HMOX1; test: Western blot of Nrf2-dependent protein expression in AREc32 cells: HMOX1; settings: 30 μM, 24 h
Method: (§1) AREc32 cells were collected from plates after 24 h of treatment with the selected compound at 30 µM. Then, they were lysed in ice-cold lysis buffer (1% Nonidet P-40, 10% glycerol, 137 mM NaCl, 20 mM Tris HCl pH 7.5, 1 μg/mL leupeptin, 1 mM phenylmethylsulfonyl fluoride, 20 mM NaF, 1 mM sodium pyrophosphate, and 1 mM Na3VO4). After this treatment, proteins (30 μg) were resolved by gel electrophoresis on sodium dodecyl sulfate–polyacrylamide (12%) and transferred to Immobilon-P membranes (MilliporeSigma, Burlington, MA, USA). The membranes were incubated with anti-GCLc (1:1000, Ab41463 (Abcam, Cambridge, MA, USA), anti−HMOX1 (1:1000, ab68477, Abcam), anti-NQO1 (1:1000, 11451-1-AP, Proteintech, Manchester, UK), or anti-β-Actin (1:100,000, A3854, Merck, Madrid, Spain). Peroxidase-conjugated secondary antibodies (1:10,000 and anti-rabbit: SC-2357, Santa Cruz Biotechnology, Dallas, TX, USA) were employed to detect the proteins by enhanced chemoluminescence. Band intensities corresponding to immunoblot detection of protein samples were quantitated with Fiji software.
(§2) Figure 4 Compound 3g effectively induces Nrf2 translocation and overexpression of Nrf2-ARE dependent genes in AREc32 cells. […] (B) Nrf2 nuclear localization analysis, measured as integrated intensity localized at the nucleus. HMOX1 (C) and NQO1 (D) expression in AREc32, measured by Western blot analysis. […]

[2] = tested on: Nrf2; test: Nrf2 nuclear translocation, immunocytochemistry in AREc32 cells; settings: 30 μM, 1 h
Method: AREc32 or SH-SY5Y cells were seeded in 24 multiwell plates (40,000 or 100,000 cells per well, respectively) on poly-D-Lysine coated crystal slides. AREc32 cells were incubated for 1 h with the compounds under assay, and were then fixed by treatment with a 4% solution of paraformaldehyde in PBS for 15 min, followed by three washings with PBS in 5 min intervals. SH-SY5Y cells were treated with compounds during 24 h, and then co-incubated with medium (basal), okadaic acid (OA, 20 nM), or OA plus compound 3i (10 μM). […]
Figure 4 Compound 3g effectively induces Nrf2 translocation and overexpression of Nrf2-ARE dependent genes in AREc32 cells. […] (B) Nrf2 nuclear localization analysis, measured as integrated intensity localized at the nucleus. HMOX1 (C) and NQO1 (D) expression in AREc32, measured by Western blot analysis. Cells were treated with compound 3g (30 µM), sulforaphane (10 µM), or culture medium (basal) for 24 h and protein expression was then assessed. Graphs are expressed as densitometric quantification using β-actin for normalization (bottom). […] Data are expressed as mean ± S.E.M. of six independent experiments. […]

[3] = tested on: NQO1; test: Western blot of Nrf2-dependent protein expression in AREc32 cells: NQO1; settings: 30 μM, 24 h
Method: as §1, §2

[4] = tested on: AT8 (Ser202, Thr205 phospho-Tau); test: Phospho-tau (AT8) immunofluorescence in SH-SY5Y cells treated with okadaic acid; settings: 10 µM, OA 20 nM, 8 h
Method: (§3) AREc32 or SH-SY5Y cells were seeded in 24 multiwell plates (40,000 or 100,000 cells per well, respectively) on poly-D-Lysine coated crystal slides. AREc32 cells were incubated for 1 h with the compounds under assay, and were then fixed by treatment with a 4% solution of paraformaldehyde in PBS for 15 min, followed by three washings with PBS in 5 min intervals. SH-SY5Y cells were treated with compounds during 24 h, and then co-incubated with medium (basal), okadaic acid (OA, 20 nM), or OA plus compound 3i (10 μM). Thereafter, cells were permeabilized by treatment with 0.5% Triton X-100 for 5 min, followed by three washings with PBS, and were incubated overnight with primary antibody anti-Nrf2 (ARE, 1:50, A-10, sc-365949, Santa Cruz Biotechnology, Dallas, TX, USA), anti-pTau AT8 (1:400, MN1020, Thermofisher, Madrid, Spain), and anti-HO-1 (1:400, Ab13243, Abcam, Madrid, Spain). After three washes with PBS, the cells were incubated with secondary antibodies (1:800, 1 h). In order to visualize the nuclei, the cells were counterstained during the second wash with 5 μg·mL^−1 of Hoechst 33342 (Invitrogen, Madrid, Spain). […]
(§4) Finally, we evaluated the capacity of compound 3i to reduce tau hyperphosphorylation in the SH-SY5Y cellular line induced by okadaic acid (OA). […]

[5] = tested on: HO-1; test: HO-1 immunofluorescence in SH-SY5Y cells treated with okadaic acid; settings: 10 µM, OA 20 nM, 8 h
Method: as §3, §4

[6] = tested on: SH-SY5Y cells; test: Neuroprotection against rotenone/oligomycin A in SH-SY5Y cells (MTT); settings: increasing concentrations; R/O 30/10 µM

Row | SMILES | HMOX1 protein levels [1] | Nrf2 distribution in cells [2] | NQO1 protein levels [3] | phospho-tau levels [4] | increase of HO-1 levels compared to basal levels [5] [%] | neuroprotective effect against rotenone/oligomycin A by concentration [6]
1 | COC(=O)C1=C(C)N(CCc2ccccc2)C(=O)/C1=C\c1cc(OC)c(OC)c(OC)c1 [Compound 3g, Methyl (Z)-2-Methyl-5-oxo-1-phenethyl-4-(3,4,5-trimethoxybenzylidene)-4,5-dihydro-1H-pyrrole-3-carboxylate] | significantly increased | predominately nuclear distribution of Nrf2 | significantly increased | – | – | –
2 | COC(=O)C1=C(C)N(CCc2ccccc2)C(=O)/C1=C\c1ccc(O)c(O)c1 [Compound 3i, Methyl (Z)-4-(3,4-Dihydroxybenzylidene)-2-methyl-5-oxo-1-phenethyl-4,5-dihydro-1H-pyrrole-3-carboxylate] | – | – | – | significantly reduced phopho-tau levels to basal levels | 46 | statistically significant neuroprotective effect at 0.1 and 1 µM; also recorded: this activity was lost at 10 µM
